{"source": "patent EP2545050B1", "about": "“COMPOUNDS FOR THE TREATMENT OF HEPATITIS C” (Bristol-Myers Squibb Company, priority 2010, dated 2011)", "note": "pEC50: −log10 of the molar value.", "data": [{"tested_on": "HCV replicon", "experiment": "HCV replicon assay (FRET or luciferase reporter)", "format": "cell-based", "details": "Hepatitis C virus; HCV replicon cells; Table 1", "description": "FRET Assay Preparation. To perform the HCV FRET screening assay, 96-well cell culture plates were used. The FRET peptide (Anaspec, Inc.) (Taliani et al., Anal. Biochem. 1996, 240, 60-67) contains a fluorescence donor, EDANS, near one end of the peptide and an acceptor, DABCYL, near the other end. The fluorescence of the peptide is quenched by […] resonance energy transfer (RET) between the donor and the acceptor, but as the NS3 protease cleaves the peptide the products are released from RET quenching and the fluorescence of the donor becomes apparent. The assay reagent was made as follows: 5X cell Luciferase cell culture lysis reagent from Promega (#E153A) diluted to 1X with dH2O, NaCl added to 150 mM final, the FRET peptide diluted to 20 µM final from a 2 mM stock.\nTo prepare plates, HCV replicon cells, with or without a Renilla luciferase reporter gene, were trypsinized and placed into each well of a 96-well plate with titrated test compounds added in columns 3 through 12; columns 1 and 2 contained a control compound (HCV protease inhibitor), and the bottom row contained cells without compound. The plates were then placed in a CO2 incubator at 37 °C.\nAssays. Subsequent to addition of the test compounds described above (FRET Assay Preparation), at various times the plate was removed and Alamar blue solution (Trek Diagnostics, #00-100) was added per well as a measure of cellular toxicity. After reading in a Cytoflour 4000 instrument (PE Biosystems), plates were rinsed with PBS and then used for FRET assay by the addition of 30 ul of the FRET peptide assay reagent described above (FRET Assay Preparation) per well. The plate was then placed into the Cytoflour 4000 instrument which had been set to 340 excite/490 emission, automatic mode for 20 cycles and the plate read in a kinetic mode. Typically, the signal to noise using an endpoint analysis after the reads was at least three-fold. Alternatively, after Alamar blue reading, plates were rinsed with PBS, 50 ul of DMEM (high glucose) without phenol red was added and plates were then used for luciferase assay using the Promega Dual-Glo Luciferase Assay System.\nCompound analysis was determined by quantification of the relative HCV replicon inhibition and the relative cytotoxicity values. To calculate cytoxicity values, the average Alamar Blue fluorescence signals from the control wells were set as 100% non-toxic. The individual signals in each of the compound test wells were then divided by the average control signal and multiplied by 100% to determine […]. To calculate the HCV replicon inhibition values, an average background value was obtained from the two wells containing the highest amount of HCV protease inhibitor at the end of the assay period. These numbers were similar to those obtained from naive Huh-7 cells.\nThe background numbers were then subtracted from the average signal obtained from the control wells and this number was used as 100% activity. The individual signals in each of the compound test wells were then divided by the averaged control values after background subtraction and multiplied by 100% to determine percent activity. EC50 values for a protease inhibitor titration were calculated as the concentration which caused a 50% reduction in FRET or luciferase activity. The two numbers generated for the compound plate, percent cytoxicity and percent activity were used to determine compounds of interest for further analysis.\nHCV Replicon Luciferase Reporter Assay\nThe HCV replicon luciferase assay was developed to monitor the inhibitory effects of compounds described in the disclosure on HCV viral replication. Utilization of a replicon luciferase reporter assay was first described by Krieger et al (Krieger N, Lohmann V, and Bartenschlager R, J. Virol. 75(10):4614-4624 (2001)). […]", "values": [{"smiles": "CNC(=O)c1c(-c2ccc(F)cc2)nn2ccc(-c3cc(C(=O)NC4(c5ccccn5)CC4)c(OC)nc3C)c(F)c12", "note": "[4-fluoro-2-(4-fluorophenyl)-5-(6-methoxy-2-methyl-5-(1-(pyridin-2-yl)cyclopropylcarbamoyl)pyridin-3-yl)-N-methylpyrazolo[1,5-a]pyridine-3-carboxamide]", "pEC50": "6.60 to 8.70"}, {"smiles": "CNC(=O)c1c(-c2ccc(F)cc2)nn2ccc(-c3cc(C(=O)NC4(c5ccccn5)CC4)c(OC(F)F)nc3C)c(F)c12", "note": "[5-(6-(difluoromethoxy)-2-methyl-5-(1-(pyridin-2-yl)cyclopropylcarbamoyl)pyridin-3-yl)-4-fluoro-2-(4-fluorophenyl)-N-methylpyrazolo[1,5-a]pyridine-3-carboxamide]", "pEC50": "6.60 to 8.70"}, {"smiles": "CNC(=O)c1c(-c2ccc(F)cc2)nn2ccc(-c3cc(C(=O)NC4(c5nccc(O)n5)CC4)c(OC)cc3C)c(F)c12", "note": "[4-fluoro-2-(4-fluorophenyl)-5-(5-(1-(4-hydroxypyrimidin-2-yl)cyclopropylcarbamoyl)-4-methoxy-2-methylphenyl)-N-methylpyrazolo[1,5-a]pyridine-3-carboxamide]", "pEC50": "5.00 to 6.00"}, {"smiles": "CNC(=O)c1c(-c2ccc(F)cc2)nn2ccc(-c3cc(C(=O)NC4(c5ncccn5)CC4)c(OCC4CCOCC4)nc3C)c(F)c12", "note": "[4-fluoro-2-(4-fluorophenyl)-N-methyl-5-(2-methyl-5-(1-(pyrimidin-2-yl)cyclopropylcarbamoyl)-6-((tetrahydro-2H-pyran-4-yl)methoxy)pyridin-3-yl)pyrazolo[1,5-a]pyridine-3-carboxamide]", "pEC50": "6.60 to 8.70"}, {"smiles": "CNC(=O)c1c(-c2ccc(F)cc2)nn2ccc(-c3cc(C(=O)NC4(c5cc(F)ccn5)CC4)c(OC)nc3C)c(F)c12", "note": "[4-fluoro-2-(4-fluorophenyl)-5-(5-(1-(4-fluoropyridin-2-yl)cyclopropylcarbamoyl)-6-methoxy-2-methylpyridin-3-yl)-N-methylpyrazolo[1,5-a]pyridine-3-carboxamide]", "pEC50": "6.60 to 8.70"}, {"smiles": "CNC(=O)c1c(-c2ccc(F)cc2)nn2ccc(-c3cc(C(=O)NC4(c5cnccn5)CC4)c(OC)cc3C)c(F)c12", "note": "[4-fluoro-2-(4-fluorophenyl)-5-(4-methoxy-2-methyl-5-(1-(pyrazin-2-yl)cyclopropylcarbamoyl)phenyl)-N-methylpyrazolo[1,5-a]pyridine-3-carboxamide]", "pEC50": "6.60 to 8.70"}, {"smiles": "CNC(=O)c1c(-c2ccc(F)cc2)nn2ccc(-c3cc(C(=O)NC4(c5ccccc5)CC4)c(OC)nc3C)c(F)c12", "note": "[4-fluoro-2-(4-fluorophenyl)-5-(6-methoxy-2-methyl-5-(1-phenylcyclopropylcarbamoyl)pyridin-3-yl)-N-methylpyrazolo[1,5-a]pyridine-3-carboxamide]", "pEC50": "6.60 to 8.70"}, {"smiles": "CNC(=O)c1c(-c2ccc(F)cc2)nn2ccc(-c3cc(C(=O)NC4(c5ccccc5)CC4)c(OC(F)F)nc3C)c(F)c12", "note": "[5-(6-(difluoromethoxy)-2-methyl-5-(1-phenylcyclopropylcarbamoyl)pyridin-3-yl)-4-fluoro-2-(4-fluorophenyl)-N-methylpyrazolo[1,5-a]pyridine-3-carboxamide]", "pEC50": "6.60 to 8.70"}, {"smiles": "CNC(=O)c1c(-c2ccc(F)cc2)nn2ccc(-c3cc(C(=O)NC4(c5ccnnc5)CC4)c(OC)cc3C)c(F)c12", "note": "[4-fluoro-2-(4-fluorophenyl)-5-(4-methoxy-2-methyl-5-(1-(pyridazin-4-yl)cyclopropylcarbamoyl)phenyl)-N-methylpyrazolo[1,5-a]pyridine-3-carboxamide]", "pEC50": "5.00 to 6.00"}, {"smiles": "CNC(=O)c1c(-c2ccc(F)cc2)nn2ccc(-c3cc(C(=O)NC4(c5ccccn5)CC4)c(OCC4CCOCC4)nc3C)c(F)c12", "note": "[4-fluoro-2-(4-fluorophenyl)-N-methyl-5-(2-methyl-5-(1-(pyridin-2-yl)cyclopropylcarbamoyl)-6-((tetrahydro-2H-pyran-4-yl)methoxy)pyridin-3-yl)pyrazolo[1,5-a]pyridine-3-carboxamide]", "pEC50": "6.60 to 8.70"}]}, {"tested_on": "HCV", "experiment": "not given", "details": "extended dosing of the combination regimens; development suspended; cited from earlier work", "values": [{"smiles": "CNC(=O)c1c(-c2ccc(F)cc2)oc2cc(N(CCO)S(C)(=O)=O)c(C3CC3)cc12", "note": "[HCV-796]", "hepatic toxicity": "hepatic toxicity observed"}]}]}
